Key:
[1] = tested on: A-typeJAK/STAT receptor in HEK293T receiver cells; test: Sender-receiver co-culture, SEAP activity (Fig. 6b, S30); type: cell-based, human; conditions: 1.5 × 10^5 receivers + 6 × 10^5 senders; 1 μg/mL dox; 48 h, 37 °C; independent triplicates
Description: In detail, we observe a 6.6-fold increase in SEAP activity for receiver cells cultured with senders in the presence of dox compared to a co-culture with senders in the absence of the inducer and 9.7-fold increase compared to receiver cells cultured with control 293S GnTi^- cells; a response that is similar to previously engineered paracrine synthetic communication systems[31],[33],[34],[36],[37],[42], ranging from 1.5- to 20-fold in performance. To understand the origin of this activation level, we plated 4.5 × 10^5 sender cells incubated with doxycycline and measured 0.14 μM of secreted SUMO-tagged A’-A’ dipeptide after 48 h, by means of western blotting using an anti-Smt3 antibody (“Methods” and Supplementary Fig. S29). […]
SEAP concentration in cell culture medium was quantified in terms of absorbance increase due to para-nitrophenylphosphate (pNPP), using a commercially available SEAP assay kit (NBP2-25285, Novus Biologicals). […] Absorbance values were measured at 405 nm, at a controlled temperature of 25 °C, for 60 minutes, using a Tecan Spark 10 M plate reader (Tecan). […] Absorbance units are converted to amount of substrate conversion and SEAP activity is calculated from the slope of the time trace and expressed in units per litre (U/L). […]

[2] = tested on: HEK293S GnTi- TetR sender cells; test: Flow cytometry of EmGFP-positive sender cells with and without doxycycline; type: cell-based, human; conditions: HEK293S GnTi- TetR senders prior to sorting; with dox
Experimental: HEK293T cells (ATCC® CRL3216™) or human embryonic kidney 293 S lacking N-acetylglucosaminyltransferase I and expressing the Tet repressor protein (HEK293S GnTI^- TetR; obtained from the group of N. Callewaert at the VIB-UGent Center for Medical Biotechnology; nico.callewaert@ugent.vib.be)[75] were plated in 24-well plates (Greiner) and upon reaching 10-20% confluency were transduced with lentivirus harboring the SUMO-tagged A’-A’ peptide with linker I2 (Supplementary Fig. S26) or SUMO-tagged A’-Γ or Γ’-A’ peptide with linker l4 (Supplementary Fig. S31), under the control of the major immediate–early (MIE) human cytomegalovirus (CMV) enhancer and promoter and two TetO operator sequences[69] followed by an internal ribosome entry site (IRES) from encephalomyocarditis virus (EMCV) controlling the expression of an emerald green fluorescent protein (EmGFP). In total, 50–100 μL lentivirus was added to the cells, containing transduction medium (DMEM (41966; Thermo Fisher Scientific) supplemented with 10% (v/v) heat-inactivated FBS (S-FBS-SA-015; Serana)). […] Cells were bulk-sorted or sorted as single cells for EmGFP by fluorescence-activated cell sorting (FACS) in 1:1 conditioned to growth media (conditioned medium being medium that has been in contact with cells for 24 hours and subsequently harvested and filtered with a 0.45-μm syringe filter (Merck)). […]

## C[C@H]1c2cccc(O)c2C(=O)C2=C(O)[C@]3(O)C(=O)C(C(N)=O)=C(O)[C@@H](N(C)C)[C@@H]3[C@@H](O)[C@@H]21 [doxycycline]
[1]
  fold increase in SEAP activity vs co-culture without inducer: 6.6 fold
  fold increase in SEAP activity vs receivers with control 293S GnTi- cells: 9.7 fold
[2]
  EmGFP positive cells upon doxycycline, prior to sorting: 55.0%
